Source: PMC4738246, “Conformational dynamics is key to understanding loss-of-function of NQO1 cancer-associated polymorphisms and its correction by pharmacological ligands” (Scientific Reports, 2016)
Where two headings read alike, the source gives them in different places.

Key:
[1] = molecular target: T1, NQO1 p.R139W (Homo sapiens, UniProt P15559, R139W); set-up: made in house; conditions: FAD binding to p.R139W, two-sequential binding sites model, average of two titrations, cited from earlier work
[2] = molecular target: T2, NQO1 WT (Homo sapiens, UniProt P15559); set-up: made in house; conditions: FAD binding to WT, two-sequential binding sites model, average of two titrations, cited from earlier work
[3] = molecular target: T3, NQO1 p.P187S (Homo sapiens, UniProt P15559, P187S); set-up: made in house; conditions: FAD binding to p.P187S; single set of sites model; average of two titrations; read-out: Kd1; cited from earlier work
[4] = molecular target: T1, NQO1 p.R139W; assay: Proteolysis by thermolysin, p.R139W NQO1; conditions: p.R139W apo-protein vs as purified
Description: (§2) Proteolysis was performed at 25 °C in HEPES-KOH 50 mM CaCl2 10 mM pH 7.4 using 20 μM in NQO1 (monomer), and the reaction was initiated by the addition of thermolysin (at a final concentration of 10 pM-1 μM) in a final volume of 200 μL. Proteolysis reactions were performed using the NQO1 proteins as purified or as apo-proteins. […] After normalization of the intensities using that of the control sample in the absence of thermolysin, the Intensity (I) vs. Time (t) profiles were analyzed using a single exponential function:
(§3) where k is the proteolysis rate constant and I0 the initial intensity.

[5] = molecular target: T3, NQO1 p.P187S; assay: Binding affinity by ITC, p.P187S NQO1; conditions: FAD and dicoumarol stated together
Description: After peak integration, binding isotherms were analyzed using a one-type of independent sites model using the software provided by the manufacturer.

[6] = molecular target: T2, NQO1 WT; assay: Proteolysis by thermolysin, WT NQO1; conditions: WT apo-protein vs as purified
Description: as §2, §3

[7] = test system: Caco-2 cells (homozygous for p.P187S); assay: Steady-state NQO1 protein levels by immunoblotting, Caco-2 cells; format: cell-based, human; conditions: 24 h, dicoumarol 100 μM, riboflavin 10 μM, normalized to untreated cells
Description: (§1) After transferring to polyvinylidene difluoride membranes (GE Healthcare), immunoblotting was carried out using primary monoclonal antibodies anti-NQO1 and anti-β-actin (Santa Cruz Biotechnology) from mouse at 1:500 and 1:10000 dilutions, respectively. As secondary antibody, we used goat anti-mouse IgG-HRP (Santa Cruz Biotechnology) at 1:1000 dilution. Chemiluminiscent detection of bands was carried out using Clarity™ Western ECL Blotting Substrate (Biorad) and analyzed using a luminescent image analyzer LAS-4000 mini (Fujifilm).

[8] = test system: HCT 116 cells (heterozygous for p.R139W); conditions: 24 h, dicoumarol 100 μM, riboflavin 10 μM
Description: as §1

[9] = test system: HeLa cells (expressing WT NQO1); conditions: 24 h, dicoumarol 100 μM, riboflavin 10 μM
Description: as §1

T2 sequence (P15559 whole entry): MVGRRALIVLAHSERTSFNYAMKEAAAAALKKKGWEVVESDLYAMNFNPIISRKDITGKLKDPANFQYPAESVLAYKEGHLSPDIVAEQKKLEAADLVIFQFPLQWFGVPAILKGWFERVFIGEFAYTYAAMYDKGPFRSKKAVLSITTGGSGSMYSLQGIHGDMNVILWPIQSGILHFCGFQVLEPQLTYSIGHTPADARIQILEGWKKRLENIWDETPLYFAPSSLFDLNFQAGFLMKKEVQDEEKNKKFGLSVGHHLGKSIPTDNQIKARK
T1 sequence (P15559 whole entry R139W): as the sequence (P15559 whole entry) above, with R139W counted along it
T3 sequence (P15559 whole entry P187S): as the sequence (P15559 whole entry) above, with P187S counted along it

Structure (SMILES) | Kd ([1]; read-out: Kd1) [nM] | Kd ([1]; read-out: Kd2) [nM] | Kd ([2]; read-out: Kd1) [nM] | Kd ([2]; read-out: Kd2) [nM] | Kd [3] [nM] | increase in the sensitivity towards thermolysin on removal of FAD [4] [fold] | lower affinity of p.P187S than the WT enzyme [5] | increase in the sensitivity towards thermolysin on removal of FAD [6] [fold] | enhancement of steady-state levels of p.P187S NQO1 protein [7] | effect on protein levels of p.R139W NQO1 [8] | effect on protein levels of WT NQO1 [9]
Cc1cc2nc3c(=O)[nH]c(=O)nc-3n(C[C@H](O)[C@H](O)[C@H](O)COP(=O)(O)OP(=O)(O)OC[C@H]3O[C@@H](n4cnc5c(N)ncnc54)[C@H](O)[C@@H]3O)c2cc1C [FAD] | ~3 | 70 | ~1 | 60 | 400 | 200 | 10–100 fold | 200 |  |  | 
Cc1cc2nc3c(=O)[nH]c(=O)nc-3n(C[C@H](O)[C@H](O)[C@H](O)CO)c2cc1C [riboflavin] |  |  |  |  |  |  |  |  | much lower effect | small effects | small effects
